Reference: patent US6498137B1, “Aerosol cleaning composition containing an organic acid and a spore forming microbial composition” (Spartan Chemical Company, Inc., priority 2001, dated 2002)

Columns and labels:
Bacillus spores = test: Nisin in letheen broth sub-culture: out-growth of Bacillus spores; type: cell-based; settings: 0.1 μg/ml nisin in letheen broth
Method: (§1) Nisin is not an ingredient in the product formulation. It is a modification to the AOAC test method. Specifically, when setting up the test sub-culture 0.1 μg/ml of nisin is added to the letheen broth.

test organism = test: Nisin in letheen broth sub-culture: effect on the test organism; type: cell-based; settings: 0.1 μg/ml nisin in letheen broth
Method: as §1

Substance: nisin
- out-growth of Bacillus spores transferred on the carrier (Bacillus spores): inhibits out-growth
- bacteriostatic effect on the test organism (test organism): no bacteriostatic effect
